Results as given in patent US9586963B2 (GENFIT, priority 2011, dated 2017).

What was measured:
[1] = molecular target: T1, Rev-Erb alpha (Homo sapiens, UniProt P20393); assay: M2H (mammalian two-hybrid) cellular activation assay of Rev-Erb alpha; assay type: cell-based; details: M2H assay, HEK293 cells; for EC50: Gal4-Rev-Erb alpha / VP16-NCoR, luciferase reporter; for Emax: relative to DMSO, at the tested dose, read-out: TOP activation
T1 sequence (P20393 284-614 limits assumed): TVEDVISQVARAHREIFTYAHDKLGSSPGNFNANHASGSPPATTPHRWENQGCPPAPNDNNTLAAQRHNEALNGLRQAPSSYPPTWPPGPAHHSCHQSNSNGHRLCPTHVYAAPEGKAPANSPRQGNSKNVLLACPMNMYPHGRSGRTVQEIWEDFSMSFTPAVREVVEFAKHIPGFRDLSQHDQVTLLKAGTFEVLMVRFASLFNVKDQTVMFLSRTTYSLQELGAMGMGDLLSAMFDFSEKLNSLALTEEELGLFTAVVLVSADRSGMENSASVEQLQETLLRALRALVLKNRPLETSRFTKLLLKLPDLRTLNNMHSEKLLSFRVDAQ
Outline: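 Six-point dose-response, 18 h, 37 °C, serum-free, in HEK293 cells carrying a Gal4-RE luciferase reporter with Gal4-Rev-Erb alpha or beta plus VP16-NCoR (corepressor interaction readout). EC50 and TOP activation (%) derived from luminescence across four experiments.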

Row | EC50 [1] [nM] | melting point [°C] | Emax [1] [%] | Compound
1 | 1000 to 6000 | 117 to 119 |  | COc1ncc(C)cc1-c1ccc(C(F)(F)F)cc1Oc1cc(C)c2nnc(Cl)n2n1 [Cpd.5-27, 3-chloro-8-methyl-6-((2-(2-methoxy-5-methylpyridin-3-yl))-5-(trifluoromethyl)phenoxy)-[1,2,4]triazolo[4,3-b]pyridazine]
2 | > 6000 | 151 to 153 | > 130 | Cc1cc(Oc2cc(C(F)(F)F)ccc2-c2cccnc2)nn2c(C(F)(F)F)nnc12 [Cpd.5-32, 8-methyl-6-(2-(pyridin-3-yl)-5-(trifluoromethyl)phenoxy)-3-(trifluoromethyl)-[1,2,4]triazolo[4,3-b]pyridazine]
3 | 1000 to 6000 | 173 to 175 |  | Cc1cc2nnc(C(F)(F)F)n2nc1Oc1cc(C(F)(F)F)ccc1-c1cccnc1 [Cpd.5-33, 7-methyl-6-(2-(pyridin-3-yl)-5-(trifluoromethyl)phenoxy)-3-(trifluoromethyl)-[1,2,4]triazolo[4,3-b]pyridazine]
4 | 1000 to 6000 | 200 to 202 |  | Cc1ncc(-c2ccc(C(F)(F)F)cc2Oc2cc(C)c3nnc(Cl)n3n2)cn1 [Cpd.5-37, 3-chloro-8-methyl-6-((2-(2-methylpyrimidin-5-yl))-5-(trifluoromethyl)phenoxy)-[1,2,4]triazolo[4,3-b]pyridazine]
5 | 1000 to 6000 | 139 to 141 |  | COc1nccc(C)c1-c1ccc(C(F)(F)F)cc1Oc1cc(C)c2nnc(Cl)n2n1 [Cpd.5-39, 3-chloro-8-methyl-6-((2-(2-methoxy-4-methylpyridin-3-yl))-5-(trifluoromethyl)phenoxy)-[1,2,4]triazolo[4,3-b]pyridazine]
6 | 1000 to 6000 | 161 to 162 |  | COc1nccc(C)c1-c1ccc(C(F)(F)F)cc1Oc1nn2c(Cl)nnc2cc1C [Cpd.5-40, 3-chloro-7-methyl-6-((2-(2-methoxy-4-methylpyridin-3-yl))-5-(trifluoromethyl)phenoxy)-[1,2,4]triazolo[4,3-b]pyridazine]
7 | 100 to 1000 | 163 to 166 |  | COc1ncc(F)cc1-c1ccc(C(F)(F)F)cc1Oc1nn2c(Cl)nnc2cc1C [Cpd.5-41, 3-chloro-7-methyl-6-((2-(2-methoxy-5-fluoropyridin-3-yl))-5-(trifluoromethyl)phenoxy)-[1,2,4]triazolo[4,3-b]pyridazine]
8 | 1000 to 6000 | 149 to 150 |  | CCc1nnc2cc(C)c(Oc3cc(C(F)(F)F)ccc3-c3cncnc3)nn12 [Cpd.5-43, 3-ethyl-7-methyl-6-(2-(pyrimidin-5-yl)-5-(trifluoromethyl)phenoxy)-[1,2,4]triazolo[4,3-b]pyridazine]
9 | > 6000 | 179 to 181 | > 130 | Cc1cc2nncn2nc1Oc1cc(C(F)(F)F)ccc1-c1cncnc1 [Cpd.5-44, 7-methyl-6-(2-(pyrimidin-5-yl)-5-(trifluoromethyl)phenoxy)-[1,2,4]triazolo[4,3-b]pyridazine]
10 | > 6000 | 230 to 234 | > 130 | Cc1cc(Oc2cc(C(F)(F)F)ccc2-c2cncnc2)nn2cnnc12 [Cpd.5-46, 8-methyl-6-(2-(pyrimidin-5-yl)-5-(trifluoromethyl)phenoxy)-[1,2,4]triazolo[4,3-b]pyridazine]
11 | 1000 to 6000 | 182 to 184 |  | CCc1nnc2c(C)cc(Oc3cc(C(F)(F)F)ccc3-c3cncnc3)nn12 [Cpd.5-48, 3-ethyl-8-methyl-6-(2-(pyrimidin-5-yl)-5-(trifluoromethyl)phenoxy)-[1,2,4]triazolo[4,3-b]pyridazine]
12 | 1000 to 6000 | 174 to 176 |  | CCc1nnc2cc(C)c(Oc3cc(C(F)(F)F)ccc3-c3cccnc3)nn12 [Cpd.5-49, 3-ethyl-7-methyl-6-(2-(pyridin-3-yl)-5-(trifluoromethyl)phenoxy)-[1,2,4]triazolo[4,3-b]pyridazine]
13 | > 6000 | 240 | > 130 | COc1ncc(-c2ccc(C(F)(F)F)cc2Oc2nn3c(Cl)nnc3c3ccccc23)c(OC)n1 [Cpd.5-54, 3-chloro-6-(2-(2,4-dimethoxypyrimidin-5-yl)-5-(trifluoromethyl)phenoxy)-[1,2,4]triazolo[3,4-a]phthalazine]
14 | 1000 to 6000 | 170 to 172 |  | COc1ncc(-c2cc(Cl)ccc2Oc2cc(C)c3nnc(Cl)n3n2)cn1 [Cpd.5-55, 3-chloro-6-(4-chloro-2-(2-methoxypyrimidin-5-yl)phenoxy)-8-methyl-[1,2,4]triazolo[4,3-b]pyridazine]
15 | 1000 to 6000 | 189 to 192 |  | COc1ncc(-c2cc(Cl)ccc2Oc2nn3c(Cl)nnc3cc2C)cn1 [Cpd.5-56, 3-chloro-6-(4-chloro-2-(2-methoxypyrimidin-5-yl)phenoxy)-7-methyl-[1,2,4]triazolo[4,3-b]pyridazine]
16 | 100 to 1000 | 213 to 215 |  | COc1ncc(-c2cc(Cl)ccc2Oc2nn3c(Cl)nnc3c3ccccc23)cn1 [Cpd.5-57, 3-chloro-6-(4-chloro-2-(2-methoxypyrimidin-5-yl)phenoxy)-[1,2,4]triazolo[3,4-a]phthalazine]
17 | 1000 to 6000 | 208 to 210 |  | Cc1cc(Oc2ccc(Cl)cc2-c2cncnc2)nn2c(Cl)nnc12 [Cpd.5-58, 3-chloro-6-(4-chloro-2-(pyrimidin-5-yl)phenoxy)-8-methyl-[1,2,4]triazolo[4,3-b]pyridazine]
18 | > 6000 | 224 to 226 | > 130 | Cc1cc2nnc(Cl)n2nc1Oc1ccc(Cl)cc1-c1cncnc1 [Cpd.5-59, 3-chloro-6-(4-chloro-2-(pyrimidin-5-yl)phenoxy)-7-methyl-[1,2,4]triazolo[4,3-b]pyridazine]
19 | 100 to 1000 | 252 to 253 |  | Clc1ccc(Oc2nn3c(Cl)nnc3c3ccccc23)c(-c2cncnc2)c1 [Cpd.5-60, 3-chloro-6-(4-chloro-2-(pyrimidin-5-yl)phenoxy)-[1,2,4]triazolo[3,4-a]phthalazine]
20 | 1000 to 6000 | 174 to 179 |  | Cc1cc2nnc(C(F)(F)F)n2nc1Oc1cc(C(F)(F)F)ccc1-c1cncnc1 [Cpd.5-61, 7-methyl-6-(2-(pyrimidin-5-yl)-5-(trifluoromethyl)phenoxy)-3-(trifluoromethyl)-[1,2,4]triazolo[4,3-b]pyridazine]
21 | 1000 to 6000 | 197 to 200 |  | FC(F)(F)c1ccc(-c2cncnc2)c(Oc2nn3c(C(F)(F)F)nnc3c3ccccc23)c1 [Cpd.5-62, 6-(2-(pyrimidin-5-yl)-5-(trifluoromethyl)phenoxy)-3-(trifluoromethyl)-[1,2,4]triazolo[3,4-a]phthalazine]
22 | 1000 to 6000 | 167 to 172 |  | Cc1cc(Oc2cc(C(F)(F)F)ccc2-c2cncnc2)nn2c(C(F)(F)F)nnc12 [Cpd.5-63, 8-methyl-6-(2-(pyrimidin-5-yl)-5-(trifluoromethyl)phenoxy)-3-(trifluoromethyl)-[1,2,4]triazolo[4,3-b]pyridazine]
23 | 1000 to 6000 | 220 to 230 |  | FC(F)(F)c1ccc(-c2cncnc2)c(Oc2nn3cnnc3c3ccccc23)c1 [Cpd.5-64, 6-(2-(pyrimidin-5-yl)-5-(trifluoromethyl)phenoxy)-[1,2,4]triazolo[3,4-a]phthalazine]
